Measurements published in US12280045B2, “Antitumor agent and antitumor effect potentiator” (TAIHO PHARMACEUTICAL CO., LTD., priority 2017, dated 2025).

Experiments:
[1] = tested on: mouse colon cancer cell line MC38; experiment: Antitumor effect (tumor volume) in MC38 colon cancer cell transplant model; type: in vivo; conditions: for TV, DAY 22 MEAN ± S.E.: N=10
Experimental: MC38, a mouse colon cancer cell line, was provided by Dr. Yoshihiro Hayakawa (University of Toyama, Toyama, Japan). MC38 was cultured in RPMI 1640 medium containing 10% fetal bovine serum (FBS). MC38 was subcultured in a 37° C., 5% CO2 incubator in a 1:3 to 1:5 ratio, one to two times a week.
(§1) A cell suspension as a suspension of MC38 cells in a 1:1 mixture of phosphate-buffered saline (PBS) and extracellular matrix component Matrigel was prepared, and the suspension, containing 1×10^6 cells/0.1 mL, was transplanted subcutaneously into a C57BL/6NCrl mouse (Charles River Laboratories Japan Inc.), six weeks of age, in an area around the right last rib.
(§2) The tumor size was measured by measuring the major axis and minor axis of the tumor with a digimatic caliper, and TV was calculated using the following formula. TV (mm^3)=major axis (mm)×minor axis (mm)×minor axis (mm)/2
The animals were divided into groups of 10 using a stratified random grouping method, using TV as an index. The day the grouping was made (N=10) was designated as Day 1.
(§3) A methanesulfonic acid salt of compound 1 was pulverized with an agate mortar, and was prepared into a solution having a concentration of 5 mg/mL as its free form, using a solvent. The compound was then dissolved by sonication to prepare a 50 mg/kg dosing solution. The dosing solution was diluted with solvent to prepare a 25 mg/kg dosing solution, and a 12.5 mg/kg dosing solution. These dosing solutions were orally administered as compound 1, once daily in a dose of 12.5 mg/kg/day, 25 mg/kg/day, or 50 mg/kg/day, continuously for 21 days.
(§4) The anti-mouse PD-1 antibody was intraperitoneally administered in a dose of 0.05 mg/body on the first day (Day 1) of administration and on the 8th day since administration was started.
(§5) The medicinal agents shown in Table 1 were administered in the schedules, doses, and dosage forms shown in Table 1 (administered group No. 1 to No. 8).
A Dunnett's test (significance level 0.05) was conducted to analyze Day 22 TV for each group.

[2] = Percentage of body weight change in MC38 colon cancer cell transplant model; type: in vivo, mouse
Experimental: (§6) An electronic balance designed for animals was used for body weight measurement. A percentage of body weight change (BWCn) on day n was calculated from the body weight on day 1 (BW1) and the body weight (BWn) on day n using the following formula. Percentage of body weight change BWCn (%)=(BWn−BW1)/BW1×100
as §3, §4, §5

[3] = tested on: tumor-associated macrophage; experiment: Fraction of tumor-associated macrophage in TIL, MC38 colon cancer cell transplant model (flow cytometry); type: in vivo, mouse
Experimental: MC38, a mouse colon cancer cell line, was provided by Dr. Yoshihiro Hayakawa (University of Toyama, Toyama, Japan). MC38 was cultured in RPMI 1640 medium containing 10% FBS. MC38 was subcultured in a 37° C., 5% CO2 incubator in a 1:3 to 1:5 ratio, one to two times a week.
A cell suspension of MC38 cells containing 2×10^6 cells/0.1 mL, was transplanted subcutaneously into a C57BL/6NJJcl mouse (CLEA Japan, Inc.), six weeks of age, in an area around the right last rib.
The tumor size was measured by measuring the major axis and minor axis of the tumor with a digimatic caliper, and TV was calculated using the following formula. TV (mm^3)=major axis (mm)×minor axis (mm)×minor axis (mm)/2 […]
The tumor was collected on the 10th day (Day 10) since administration was started, and a tumor suspension was prepared using a digestive enzyme treatment method. […] The isolated TILs were reacted with fluorescence-labeled anti-CD45 antibody, anti-CD90.2 (T cell marker) antibody, anti-CD11b (myeloid leukocyte marker) antibody, anti-Ly-6G (granulocytic bone marrow-derived suppressor cell marker) antibody, anti-Ly-6C (monocytic bone marrow-derived suppressor cell marker) antibody, and anti-F4/80 (macrophage marker) antibody, and the fraction of tumor-associated macrophage in TIL was calculated by fluorescence flow cytometry. […]

[4] = tested on: mouse breast cancer cell line EMT6; experiment: Antitumor effect (tumor volume) in EMT6 breast cancer cell transplant model; type: in vivo
Experimental: EMT6, a mouse breast cancer cell line, was obtained from American Type Culture Collection (ATCC). EMT6 was cultured in Waymouth's MB752/1 medium containing […]. EMT6 was subcultured in a 37° C., 5% CO2 incubator in a 1:3 to 1:5 ratio, one to two times a week.
as §1, with “EMT6” for “MC38”, “PBS” for “phosphate-buffered saline (PBS)”, “1×10^4” for “1×10^6”, “BALB/c” for “C57BL/6NCrl”
as §2
The animals were divided into groups of 15 using a stratified random grouping method, using TV as an index. The day the grouping was made (N=15) was designated as Day 1.
A methanesulfonic acid salt of compound 1 was pulverized with an agate mortar, and was prepared into a solution having a concentration of 4.2 mg/mL as its free form, using a solvent. The compound was then dissolved by sonication to prepare a 42 mg/kg dosing solution. The dosing solution was orally administered as compound 1, once daily in a dose of 42 mg/kg/day, continuously for 14 days. […]

[5] = Percentage of body weight change in EMT6 breast cancer cell transplant model; type: in vivo, mouse; conditions: Compound 1 42 mg/kg p.o. q.d. Day 1-14 / PBS i.p.
Experimental: as §6
An electronic balance designed for animals was used for body weight measurement. A percentage of body weight change (BWCn) on day n was calculated in the same manner as in Example 1.
A methanesulfonic acid salt of compound 1 was pulverized with an agate mortar, and was prepared into a solution having a concentration of 4.2 mg/mL as its free form, using a solvent. The compound was then dissolved by sonication to prepare a 42 mg/kg dosing solution. The dosing solution was orally administered as compound 1, once daily in a dose of 42 mg/kg/day, continuously for 14 days.
The anti-mouse PD-1 antibody was intraperitoneally administered in a dose of 0.1 mg/body on the first day (Day 1) of administration, and on the 4th day (Day 4), the 8th day (Day 8), and the 11th day (Day 11) since administration was started.
The anti-mouse CTLA-4 antibody was intraperitoneally administered in a dose of 0.5 mg/body on the first day (Day 1) of administration, and after 4 days (Day 4), 8 days (Day 8), and 11 days (Day 11) from administration. […]

[6] = tested on: tumor-associated macrophage; experiment: Fraction of tumor-associated macrophage in TIL, EMT6 breast cancer cell transplant model (flow cytometry); type: in vivo, mouse
Experimental: EMT6, a mouse breast cancer cell line, was obtained from ATCC. EMT6 was cultured in Waymouth's MB752/1 medium containing 15% FBS. EMT6 was subcultured in a 37° C., 5% CO2 incubator in a 1:3 to 1:5 ratio, one to two times a week.
as §1, with “EMT6” for “MC38”, “PBS” for “phosphate-buffered saline (PBS)”, “1×10^4” for “1×10^6”, “BALB/c” for “C57BL/6NCrl”
After 4 days from transplantation, the animals were divided into groups of 5 using a stratified random grouping method, using body weight as an index. The day the grouping was made (N=5) was designated as Day 1.
A methanesulfonic acid salt of compound 1 was pulverized with an agate mortar, and was prepared into a solution having a concentration of 4.2 mg/mL as its free form, using a solvent. […]
The tumor was collected on the 7th day (Day 7) since administration was started, and a tumor suspension was prepared using a digestive enzyme treatment method. […] The isolated TILs were reacted with fluorescence-labeled anti-CD45 antibody, anti-CD90.2 antibody, anti-CD11b antibody, anti-Ly-6G antibody, anti-Ly-6C antibody, and anti-F4/80 antibody, and the fraction of tumor-associated macrophage in TIL was calculated by fluorescence flow cytometry. […]

mouse MC38 tumor model = experiment: Dose finding of compound 1 in mouse MC38 tumor model; type: in vivo; conditions: orally administered once daily for 21 days
Experimental: An experiment was conducted with mouse MC38 tumor model. Tumor cells were cultured in vitro and transplanted subcutaneously into male mice, six weeks of age, in the right chest region, followed by daily administration of compound 1 and a control antibody. […] This dose (oral continuous administration of 50 mg/kg for 21 days, q.d.) is equivalent to the recommended dose of compound 1 in humans when administered alone.

BWC22 MEAN ± S.E. ([2]; Compound 1 12.5 mg/kg p.o. q.d. Day 1-21 / PBS i.p.): 6.1 ± 0.7% | BWC22 MEAN ± S.E. ([2]; Compound 1 25 mg/kg p.o. q.d. Day 1-21 / PBS i.p.): 5.0 ± 0.9% | BWC22 MEAN ± S.E. ([2]; Compound 1 50 mg/kg p.o. q.d. Day 1-21 / PBS i.p.): −0.3 ± 0.9% | BWC15 MEAN ± S.E. [5]: 3.2 ± 1.0%
SMILES: CNC(=O)c1cc2c(Oc3ccc(NC(=S)NC(=O)Cc4ccccc4)cc3F)ccnc2cc1OC [Compound 1, 4-(2-fluoro-4-(3-(2-phenylacetyl)thioureido)phenoxy)-7-methoxy-N-methylquinoline-6-carboxamide]
TV, DAY 22 MEAN ± S.E. ([1]; Compound 1 12.5 mg/kg p.o. q.d. Day 1-21 / PBS i.p. Day 1, 8): 1007 ± 161 mm^3 | TV, DAY 22 MEAN ± S.E. ([1]; Compound 1 25 mg/kg p.o. q.d. Day 1-21 / PBS i.p. Day 1, 8): 763 ± 50 mm^3 | TV, DAY 22 MEAN ± S.E. ([1]; Compound 1 50 mg/kg p.o. q.d. Day 1-21 / PBS i.p. Day 1, 8): 437 ± 62 mm^3 | Day 22 TV versus control group (No. 1), result in words ([1]; Dunnett's test, significance level 0.05, doses as in Table 1): significantly smaller TVs than control group | Fraction of tumor-associated macrophage MEAN ± S.E. ([3]; Compound 1 25 mg/kg p.o. q.d. Day 1-9, tumor collected Day 10, N=5): 8.2 ± 2.3% | fraction of tumor-associated macrophage versus control group (No. 1), result in words ([3]; Dunnett's test, significance level 0.05, doses as in Table 2): significantly smaller fractions of tumor-associated macrophage than control group | TV, DAY 15 MEAN ± S.E. ([4]; Compound 1 42 mg/kg p.o. q.d. Day 1-14 / PBS i.p. Day 1, 4, 8, 11, N=15): 312 ± 29 mm^3 | Day 15 TV versus control group (No. 1), result in words ([4]; Dunnett's test, significance level 0.05, doses as in Table 3): significantly smaller TVs than control group | Fraction of tumor-associated macrophage MEAN ± S.E. ([6]; Compound 1 42 mg/kg p.o. q.d. Day 1-6, tumor collected Day 7, N=5): 20.3 ± 4.8% | fraction of tumor-associated macrophage versus control group (No. 1), result in words ([6]; Dunnett's test, significance level 0.05, doses as in Table 4): significantly smaller fraction of tumor-associated macrophage than control group | preferred minimum dose that produces the maximum efficacy in the mouse (mouse MC38 tumor model): 50 mg/kg
